Laboratory results reported in patent US20080064667A1, “OXAZOLE DERIVATIVES OF TETRACYCLINES” (Wyeth, priority 2003, published 2008).
Values after ≈ are worked out from the molar mass of the structure shown.

How the values were obtained:
Experiment in all cases: MIC, broth microdilution (NCCLS)
Type in all cases: cell-based
[1] = tested on: E. coli GC4560 (IMP mutant); settings: Escherichia coli
Method: (§1) Methods for in Vitro Antibacterial Evaluation
(§2) The Minimum Inhibitory Concentration (MIC)
(§3) Antimicrobial susceptibility testing. The in vitro activities of the antibiotics are determined by the broth microdilution method as recommended by the National Committee for Clinical Laboratory Standards (NCCLS) (1). Mueller-Hinton II broth (MHBII)(BBL Cockeysville, Md.) is the medium employed in the testing procedures. Microtiter plates containing serial dilutions of each antimicrobial agent are inoculated with each organism to yield the appropriate density (10^5 CFU/ml) in a 100 μl final volume. The plates are incubated for 18-22 hours at 35° C. in ambient air.
(§4) 1. NCCLS. 2000. Methods for Dilution Antimicrobial Susceptibility Tests for Bacteria That Grow Aerobically; Approved Standards: M7-A5, vol. 20. National Committe for Clinical Laboratory Standards, Wayne, Pa.

E. coli GC1073 (tet(B)) = settings: Escherichia coli
Method: as §1, §2, §3, §4

[2] = tested on: C. albicans GC3066 ATCC (Control); settings: Candida albicans, Mueller-Hinton II broth, 18-22 hours at 35° C.
Method: as §1, §2, §3, §4

E. coli GC2270 (tet(M)) = settings: Escherichia coli
Method: as §1, §2, §3, §4

[3] = tested on: E. coli GC4559 (parent GC4560); settings: Escherichia coli, Mueller-Hinton II broth, 18-22 hours at 35° C.
Method: as §1, §2, §3, §4

[4] = tested on: S. aureus GC2216 (ATCC Control); settings: Staphylococcus aureus, Mueller-Hinton II broth, 18-22 hours at 35° C.
Method: as §1, §2, §3, §4

[5] = tested on: S. aureus GC1131 (Clinical); settings: Staphylococcus aureus, Mueller-Hinton II broth, 18-22 hours at 35° C.
Method: as §1, §2, §3, §4

[6] = tested on: S. pneumoniae* GC1894 (Clinical); settings: Streptococcus pneumoniae, Mueller-Hinton II broth, 18-22 hours at 35° C.
Method: as §1, §2, §3, §4

[7] = tested on: H. influenzae<> GC6896 (ATCC Control); settings: Haemophilus influenzae, Mueller-Hinton II broth, 18-22 hours at 35° C.
Method: as §1, §2, §3, §4

[8] = tested on: S. aureus GC1079 (tet(K)); settings: Staphylococcus aureus, Mueller-Hinton II broth, 18-22 hours at 35° C.
Method: as §1, §2, §3, §4

[9] = tested on: E. coli GC2203 (ATCC Control); settings: Escherichia coli, Mueller-Hinton II broth, 18-22 hours at 35° C.
Method: as §1, §2, §3, §4

[10] = tested on: S. pyogenes* GC4563 (Clinical); settings: Streptococcus pyogenes, Mueller-Hinton II broth, 18-22 hours at 35° C.
Method: as §1, §2, §3, §4

[11] = tested on: E. faecalis GC4555 (ATCC Control); settings: Enterococcus faecalis, Mueller-Hinton II broth, 18-22 hours at 35° C.
Method: as §1, §2, §3, §4

[12] = tested on: S. aureus GC4536 (Smith MP -In Vivo); settings: Staphylococcus aureus, Mueller-Hinton II broth, 18-22 hours at 35° C.
Method: as §1, §2, §3, §4

[13] = tested on: E. faecalis GC2242 (Van-resistant); settings: Enterococcus faecalis, Mueller-Hinton II broth, 18-22 hours at 35° C.
Method: as §1, §2, §3, §4

[14] = tested on: S. aureus GC6466 (tet(M)); settings: Staphylococcus aureus, Mueller-Hinton II broth, 18-22 hours at 35° C.
Method: as §1, §2, §3, §4

[15] = tested on: S. pneumoniae* GC4465 (Clinical); settings: Streptococcus pneumoniae, Mueller-Hinton II broth, 18-22 hours at 35° C.
Method: as §1, §2, §3, §4

[16] = tested on: M. catarrhalis* GC6907 (Clinical); settings: Moraxella catarrhalis, Mueller-Hinton II broth, 18-22 hours at 35° C.
Method: as §1, §2, §3, §4

| Structure (SMILES) | MIC [1] [µg/mL] | MIC (E. coli GC1073 (tet(B))) [µg/mL] | MIC [2] [µg/mL] | MIC (E. coli GC2270 (tet(M))) [µg/mL] | MIC [3] [µg/mL] | MIC [4] [µg/mL] | MIC [5] [µg/mL] | MIC [6] [µg/mL] | MIC [7] [µg/mL] | MIC [8] [µg/mL] | MIC [9] [µg/mL] | MIC [10] [µg/mL] | MIC [11] [µg/mL] | MIC [12] [µg/mL] | MIC [13] [µg/mL] | MIC [14] [µg/mL] | MIC [15] [µg/mL] | MIC [16] [µg/mL] |
| --- | --- | --- | --- | --- | --- | --- | --- | --- | --- | --- | --- | --- | --- | --- | --- | --- | --- | --- |
| CN(C)c1cc2nc(-c3ccc(O)cc3O)oc2c2c1C[C@H]1C[C@H]3[C@H](N(C)C)C(O)=C(C(N)=O)C(=O)[C@@]3(O)C(O)=C1C2=O [Example 12, (6aR,7aS,8S,11aS)-2-(2,4-dihydroxyphenyl)-5,8-bis(dimethylamino)-9,11a,12-trihydroxy-11,13-dioxo-6,6a,7,7a,8,11,11a,13-octahydrotetraceno[2,1-d][1,3]oxazole-10-carboxamide] | 4 (≈ 6.77 µM) | > 64 | > 64 | > 64 | > 64 | 4 (≈ 6.77 µM) | 4 (≈ 6.77 µM) | 8 (≈ 13.5 µM) | 16 (≈ 27.1 µM) | 8 (≈ 13.5 µM) | 32 (≈ 54.2 µM) | 4 (≈ 6.77 µM) | 8 (≈ 13.5 µM) | 8 (≈ 13.5 µM) | 8 (≈ 13.5 µM) | 8 (≈ 13.5 µM) | 8 (≈ 13.5 µM) | 4 (≈ 6.77 µM) |
| COc1ccc(-c2nc3cc(N(C)C)c4c(c3o2)C(=O)C2=C(O)[C@]3(O)C(=O)C(C(N)=O)=C(O)[C@@H](N(C)C)[C@@H]3C[C@@H]2C4)cc1F [Example 13, (6aR,7aS,8S,11aS)-5,8-bis(dimethylamino)-2-(3-fluoro-4-methoxyphenyl)-9,11a,12-trihydroxy-11,13-dioxo-6,6a,7,7a,8,11,11a,13-octahydrotetraceno[2,1-d][1,3]oxazole-10-carboxamide] | 4 (≈ 6.59 µM) | > 64 | > 64 | > 64 | > 64 | 4 (≈ 6.59 µM) | 4 (≈ 6.59 µM) | 16 (≈ 26.4 µM) | > 64 | 4 (≈ 6.59 µM) | > 64 | 16 (≈ 26.4 µM) | 8 (≈ 13.2 µM) | 8 (≈ 13.2 µM) | 8 (≈ 13.2 µM) | 4 (≈ 6.59 µM) | 32 (≈ 52.8 µM) | 16 (≈ 26.4 µM) |
| COc1cc(OC)c(-c2nc3cc(N(C)C)c4c(c3o2)C(=O)C2=C(O)[C@]3(O)C(=O)C(C(N)=O)=C(O)[C@@H](N(C)C)[C@@H]3C[C@@H]2C4)c(OC)c1 [Example 15, (6aR,7aS,8S,11aS)-5,8-bis(dimethylamino)-9,11a,12-trihydroxy-11,13-dioxo-2-(2,4,6-trimethoxyphenyl)-6,6a,7,7a,8,11,11a,13-octahydrotetraceno[2,1-d][1,3]oxazole-10-carboxamide] | 32 (≈ 49.3 µM) | > 64 | > 64 | > 64 | > 64 | 64 (≈ 98.7 µM) | 64 (≈ 98.7 µM) | > 64 | > 64 | 64 (≈ 98.7 µM) | > 64 | > 64 | 64 (≈ 98.7 µM) | 64 (≈ 98.7 µM) | 64 (≈ 98.7 µM) | 64 (≈ 98.7 µM) | > 64 | 64 (≈ 98.7 µM) |
| CCOc1cc(OCC)c(-c2nc3cc(N(C)C)c4c(c3o2)C(=O)C2=C(O)[C@]3(O)C(=O)C(C(N)=O)=C(O)[C@@H](N(C)C)[C@@H]3C[C@@H]2C4)cc1OCC [Example 16, (6aR,7aS,8S,11aS)-5,8-bis(dimethylamino)-9,11a,12-trihydroxy-11,13-dioxo-2-(2,4,5-triethoxyphenyl)-6,6a,7,7a,8,11,11a,13-octahydrotetraceno[2,1-d][1,3]oxazole-10-carboxamide] | 16 (≈ 23.2 µM) | > 64 | > 64 | > 64 | > 64 | 16 (≈ 23.2 µM) | 16 (≈ 23.2 µM) | > 64 | > 64 | 16 (≈ 23.2 µM) | > 64 | 64 (≈ 92.7 µM) | 16 (≈ 23.2 µM) | 16 (≈ 23.2 µM) | 16 (≈ 23.2 µM) | 16 (≈ 23.2 µM) | > 64 | > 64 |
| CN(C)c1cc2nc(-c3cc4ccccc4o3)oc2c2c1C[C@H]1C[C@H]3[C@H](N(C)C)C(O)=C(C(N)=O)C(=O)[C@@]3(O)C(O)=C1C2=O [Example 18, (6aR,7aS,8S,11aS)-2-(1-benzofuran-2-yl)-5,8-bis(dimethylamino)-9,11a,12-trihydroxy-11,13-dioxo-6,6a,7,7a,8,11,11a,13-octahydrotetraceno[2,1-d][1,3]oxazole-10-carboxamide] | 4 (≈ 6.68 µM) | > 64 | > 64 | > 64 | > 64 | 4 (≈ 6.68 µM) | 4 (≈ 6.68 µM) | 16 (≈ 26.7 µM) | > 64 | 4 (≈ 6.68 µM) | > 64 | 16 (≈ 26.7 µM) | 4 (≈ 6.68 µM) | 4 (≈ 6.68 µM) | 4 (≈ 6.68 µM) | 4 (≈ 6.68 µM) | 16 (≈ 26.7 µM) | 8 (≈ 13.4 µM) |
| CN(C)c1cc2nc(-c3cc4ccccc4n3C)oc2c2c1C[C@H]1C[C@H]3[C@H](N(C)C)C(O)=C(C(N)=O)C(=O)[C@@]3(O)C(O)=C1C2=O [Example 19, (6aR,7aS,8S,11aS)-5,8-bis(dimethylamino)-9,11a,12-trihydroxy-2-(1-methyl-1H-indol-2-yl)-11,13-dioxo-6,6a,7,7a,8,11,11a,13-octahydrotetraceno[2,1-d][1,3]oxazole-10-carboxamide] | 4 (≈ 6.54 µM) | > 64 | > 64 | > 64 | > 64 | 4 (≈ 6.54 µM) | 4 (≈ 6.54 µM) | 4 (≈ 6.54 µM) | > 64 | 4 (≈ 6.54 µM) | > 64 | 8 (≈ 13.1 µM) | 8 (≈ 13.1 µM) | 8 (≈ 13.1 µM) | 4 (≈ 6.54 µM) | 4 (≈ 6.54 µM) | 4 (≈ 6.54 µM) | 16 (≈ 26.2 µM) |
| CN(C)c1cc2nc(-c3ccco3)oc2c2c1C[C@H]1C[C@H]3[C@H](N(C)C)C(O)=C(C(N)=O)C(=O)[C@@]3(O)C(O)=C1C2=O [Example 20, (6aR,7aS,8S,1aS)-5,8-bis(dimethylamino)-2-(2-furyl)-9,11a,1 2-trihydroxy-11,13-dioxo-6,6a,7,7a,8,11,11a,13-octahydrotetraceno[2,1-d][1,3]oxazole-10-carboxamide] | 32 (≈ 58.3 µM) | > 64 | > 64 | > 64 | > 64 | 32 (≈ 58.3 µM) | 32 (≈ 58.3 µM) | 64 (≈ 117 µM) | > 64 | 32 (≈ 58.3 µM) | > 64 | 32 (≈ 58.3 µM) | 64 (≈ 117 µM) | 64 (≈ 117 µM) | 32 (≈ 58.3 µM) | 32 (≈ 58.3 µM) | > 64 | 32 (≈ 58.3 µM) |
